Reference: patent US20250041367A1, “BACTERIOPHAGES AND USE THEREOF FOR THE TREATMENT OR PREVENTION OF INFECTION CAUSED BY E. COLI” (Purdue Research Foundation, priority 2023, published 2025)

Key:
[1] = tested on: all other bacteria in the cecal samples; experiment: Chicken cecal samples on sorbitol-MacConkey agar supplemented with antibiotics; assay type: cell-based; conditions: streptomycin 64 ug/mL and gentamycin 32 ug/mL, overnight 37° C.
Procedure: (§1) As non-pathogenic E. coli are among the bacteria normally present in chickens' gastrointestinal tracts, potential antibiotic resistance selection markers in challenge APEC strains were identified by conducting antibiograms of each APEC strain in the library of APEC strains using a previously described micro-broth dilution method. 90 μL of Brain Heart Infusion broth was aliquoted into each well of 96-well plates. Antibiotics (specifically, kanamycin, gentamycin, neomycin, nalidixic acid, streptomycin, and ampicillin) were added to wells in order to establish an antibiotic concentration gradient spanning across each antibiotic's minimum inhibitory concentration (MIC) as reported by NARMS. […] Following incubation, the lowest concentration of each antibiotic that prevented visible bacterial growth was recorded as the MIC for that antibiotic. MICs were confirmed for each APEC strain by plating each strain on sorbitol-MacConkey agar supplemented with antibiotics at the determined MICs and incubating plates overnight at 37° C. The challenge APEC strain was then selected by incubating samples from chicken ceca on sorbitol-MacConkey agar supplemented with antibiotics at the determined MICs and incubating these samples overnight at 37° C. […]

APEC strain O2:H4 = experiment: Antibiogram by micro-broth dilution (MIC); assay type: cell-based, Escherichia coli; conditions: confirmed on sorbitol-MacConkey agar
Procedure: as §1

APEC serotype O2:H4 = experiment: Lytic capacity of the six-phage treatment compared with antibiotics (OD600); assay type: cell-based, Escherichia coli; conditions: APEC O2:H4, antibiotic at its minimum inhibitory concentration (NARMS), 1-4 hours
Procedure: The six APEC strains were individually inoculated into LB broth and incubated at 37° C. until they reached log-phase growth. Phages were added to the log-phase culture of their APEC host at an MOI of 10, and subsequent bacterial concentrations were determined by measuring the absorbance (OD600) of the culture at 1, 2, 3, and 4 hours post-phage application. One flask containing only bacterial culture was included as a negative control. Additional flasks containing both bacterial cultures and antibiotics (specifically, gentamycin sulfate, kanamycin sulfate, nalidixic acid, or chloramphenicol) at their respective minimum inhibitory concentrations (National Antibiotic Resistance Monitoring System (NARMS) 2019, antibiotics tested by NARMS) were included as positive controls. These lytic capacity experiments were conducted in triplicate for each of the phage types and their respective host APEC strains.

Compound	growth of all other bacteria in the cecal samples [1]	antibiotic concentration at which APEC strain O2:H4 is resistant (APEC strain O2:H4) [µg/mL]	OD600 readings of antibiotic-treated APEC cultures over time (APEC serotype O2:H4)
[H]/N=C(/N)N[C@H]1[C@H](O)[C@@H](O)[C@H](O[C@@H]2O[C@@H](C)[C@](O)(C=O)[C@H]2O[C@@H]2O[C@@H](CO)[C@H](O)[C@@H](O)[C@@H]2NC)[C@@H](N/C(N)=N\[H])[C@@H]1O [streptomycin]	prohibit the growth	64	
gentamycin	prohibit the growth	32	increased over time
